The values below come from patent US9586949B2, “Aza-heteroaryl compounds as PI3K-gamma inhibitors” (Incyte Corporation, priority 2015, dated 2017).

Structures are written as SMILES. Counter-ions that a name gives are not always drawn. Where only a bound is given, the exact number is not on record here.

The target of assay [1] is PI3Kγ (p110γ) Recombinant Human Protein (Homo sapiens (Human), UniProt P48736). Put plainly: PI3K-γ Scintillation Proximity Assay. The settings on record: 20 μM PIP2, 2 μM ATP, 13 nM PI3Kγ, 120 min; read-out: PI3K-gamma SPA IC50. The assay is classed as biochemical. As for the experimental part:
[γ-^33P]ATP (10 mCi/mL) and Wheat Germ Agglutinin (WGA) YSi SPA Scintillation Beads was purchased from Perkin-Elmer (Waltham, Mass.). […] PI3Kγ (p110γ) Recombinant Human Protein was purchased from Life technology (Grand Island, N.Y.). ATP, MgCl2, DTT, EDTA, MOPS and CHAPS were purchased from Sigma-Aldrich (St. Louis, Mo.).
The kinase reaction was conducted in polystyrene 384-well Greiner Bio-one white plate from Thermo Fisher Scientific in a final volume of 25 μL. Inhibitors were first diluted serially in DMSO and added to the plate wells before the addition of other reaction components. The final concentration of DMSO in the assay was 2%. The PI3Kγ assay was carried out at room temperature in 20 mM MOPS, pH 6.7, 10 mM MgCl2, 5 mM DTT and CHAPS 0.03%. Reactions were initiated by the addition of ATP, the final reaction mixture consisted of 20 μM PIP2, 2 μM ATP, 0.5 μCi [γ-^33P] […] The final concentration of SPA beads is 1.0 mg/mL. After the plate sealing, plates were shaken overnight at room temperature and centrifuged at 1500 rpm for 10 min, the radioactivity of the product was determined by scintillation counting on Topcount (Perkin-Elmer). IC50 determination was performed by fitting the curve of percent of the solvent control activity versus the log of the inhibitor concentration using the GraphPad Prism 6.0 software.
A general note: In a scintillation proximity assay essentially only radioactivity close to the scintillant gives light.

Assay [2] addresses PI3Kδ (p110δ/p85α) Recombinant Human Protein (Homo sapiens (Human), UniProt O00329). As to the kind of experiment: PI3Kδ Scintillation Proximity Assay. Type of assay: biochemical. The settings on record: 20 μM PIP2, 2 μM ATP, 3.4 nM PI3Kδ, 120 min; read-out: PI3K-delta SPA IC50. The text has this:
[γ-^33P]ATP (10 mCi/mL) and Wheat Germ Agglutinin (WGA) YSi SPA Scintillation Beads was purchased from Perkin-Elmer (Waltham, Mass.). Lipid kinase substrate, D-myo-Phosphatidylinositol 4,5-bisphosphate (PtdIns(4,5)P2)D (+)-sn-1,2-di-O-octanoylglyceryl, 3-O-phospho linked (PIP2), CAS 204858-53-7, was purchased from Echelon Biosciences (Salt Lake City, Utah). PI3Kδ (p110δ/p85α) Recombinant Human Protein was purchased from Eurofins (St Charles, Mo.). ATP, MgCl2, DTT, EDTA, MOPS and CHAPS were purchased from Sigma-Aldrich (St. Louis, Mo.).
The kinase reaction was conducted in polystyrene 384-well Greiner Bio-one white plate from Thermo Fisher Scientific in a final volume of 25 μL. Inhibitors were first diluted serially in DMSO and added to the plate wells before the addition of other reaction components. The final concentration of DMSO in the assay was 2%. The PI3Kδ assay was carried out at room temperature in 20 mM MOPS, pH 6.7, 10 mM MgCl2, 5 mM DTT and CHAPS 0.03%. Reactions were initiated by the addition of ATP, the final reaction mixture consisted of 20 μM PIP2, 2 μM ATP, 0.5 μCi [γ-^33P] ATP, 3.4 nM PI3Kδ. Reactions were incubated for 120 min and terminated by the addition of 40 μL SPA beads suspended in quench buffer: 163 mM potassium phosphate pH 7.8, 20% glycerol, 25 mM EDTA. The final concentration of SPA beads is 1.0 mg/mL. After the plate sealing, plates were shaken overnight at room temperature and centrifuged at 1500 rpm for 10 min, the radioactivity of the product was determined by scintillation counting on Topcount (Perkin-Elmer). IC50 determination was performed by fitting the curve of percent of the solvent control activity versus the log of the inhibitor concentration using the GraphPad Prism 6.0 software.

Chain of PI3Kδ (p110δ/p85α) Recombinant Human Protein (O00329 whole entry): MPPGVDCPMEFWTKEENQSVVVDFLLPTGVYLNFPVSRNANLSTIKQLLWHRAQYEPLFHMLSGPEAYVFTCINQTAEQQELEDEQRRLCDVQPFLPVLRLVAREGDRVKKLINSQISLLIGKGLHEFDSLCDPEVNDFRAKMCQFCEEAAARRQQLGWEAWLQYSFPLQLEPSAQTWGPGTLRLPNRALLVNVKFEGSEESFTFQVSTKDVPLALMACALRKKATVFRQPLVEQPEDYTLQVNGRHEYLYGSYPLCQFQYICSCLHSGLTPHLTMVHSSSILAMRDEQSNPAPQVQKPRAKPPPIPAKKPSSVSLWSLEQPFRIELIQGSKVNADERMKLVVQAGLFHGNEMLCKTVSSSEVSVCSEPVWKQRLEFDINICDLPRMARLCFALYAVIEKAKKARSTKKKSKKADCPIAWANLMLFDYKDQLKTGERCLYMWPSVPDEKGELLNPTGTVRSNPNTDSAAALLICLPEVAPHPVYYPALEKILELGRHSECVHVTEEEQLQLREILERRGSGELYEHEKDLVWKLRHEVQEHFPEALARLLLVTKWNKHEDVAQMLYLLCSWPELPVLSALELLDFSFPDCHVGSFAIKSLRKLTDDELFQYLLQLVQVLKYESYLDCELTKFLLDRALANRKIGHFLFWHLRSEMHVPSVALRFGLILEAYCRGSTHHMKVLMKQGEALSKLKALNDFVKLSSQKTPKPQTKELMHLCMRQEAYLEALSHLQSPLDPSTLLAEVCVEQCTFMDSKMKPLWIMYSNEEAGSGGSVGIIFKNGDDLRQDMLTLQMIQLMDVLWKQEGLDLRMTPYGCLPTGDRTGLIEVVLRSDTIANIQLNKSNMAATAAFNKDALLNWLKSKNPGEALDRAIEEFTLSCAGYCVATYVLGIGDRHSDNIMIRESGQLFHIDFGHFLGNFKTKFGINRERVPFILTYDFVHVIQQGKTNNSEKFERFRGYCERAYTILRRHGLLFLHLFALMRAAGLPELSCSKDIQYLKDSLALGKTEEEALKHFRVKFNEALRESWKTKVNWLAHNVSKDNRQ
Chain of PI3Kδ (p110δ/p85α) Recombinant Human Protein (P27986 whole entry partner): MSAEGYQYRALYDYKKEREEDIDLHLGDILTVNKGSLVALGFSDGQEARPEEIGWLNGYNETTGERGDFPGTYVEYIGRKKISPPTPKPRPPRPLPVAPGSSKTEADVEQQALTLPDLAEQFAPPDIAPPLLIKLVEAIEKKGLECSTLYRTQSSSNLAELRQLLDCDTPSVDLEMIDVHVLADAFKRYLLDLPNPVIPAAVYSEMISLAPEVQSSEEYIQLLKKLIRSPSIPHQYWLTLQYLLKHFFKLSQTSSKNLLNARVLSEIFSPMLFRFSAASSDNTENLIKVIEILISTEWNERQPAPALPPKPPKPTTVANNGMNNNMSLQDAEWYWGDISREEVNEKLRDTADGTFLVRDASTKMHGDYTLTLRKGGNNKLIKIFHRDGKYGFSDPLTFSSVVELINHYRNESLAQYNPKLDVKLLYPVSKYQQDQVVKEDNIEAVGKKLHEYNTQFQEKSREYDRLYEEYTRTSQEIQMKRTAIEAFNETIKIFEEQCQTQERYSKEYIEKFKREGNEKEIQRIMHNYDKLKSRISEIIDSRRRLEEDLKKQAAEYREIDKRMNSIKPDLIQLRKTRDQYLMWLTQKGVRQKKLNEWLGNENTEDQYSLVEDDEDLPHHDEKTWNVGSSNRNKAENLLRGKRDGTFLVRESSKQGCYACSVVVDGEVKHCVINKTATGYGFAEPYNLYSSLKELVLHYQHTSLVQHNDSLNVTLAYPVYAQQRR
Chain of PI3Kγ (p110γ) Recombinant Human Protein (P48736 whole entry): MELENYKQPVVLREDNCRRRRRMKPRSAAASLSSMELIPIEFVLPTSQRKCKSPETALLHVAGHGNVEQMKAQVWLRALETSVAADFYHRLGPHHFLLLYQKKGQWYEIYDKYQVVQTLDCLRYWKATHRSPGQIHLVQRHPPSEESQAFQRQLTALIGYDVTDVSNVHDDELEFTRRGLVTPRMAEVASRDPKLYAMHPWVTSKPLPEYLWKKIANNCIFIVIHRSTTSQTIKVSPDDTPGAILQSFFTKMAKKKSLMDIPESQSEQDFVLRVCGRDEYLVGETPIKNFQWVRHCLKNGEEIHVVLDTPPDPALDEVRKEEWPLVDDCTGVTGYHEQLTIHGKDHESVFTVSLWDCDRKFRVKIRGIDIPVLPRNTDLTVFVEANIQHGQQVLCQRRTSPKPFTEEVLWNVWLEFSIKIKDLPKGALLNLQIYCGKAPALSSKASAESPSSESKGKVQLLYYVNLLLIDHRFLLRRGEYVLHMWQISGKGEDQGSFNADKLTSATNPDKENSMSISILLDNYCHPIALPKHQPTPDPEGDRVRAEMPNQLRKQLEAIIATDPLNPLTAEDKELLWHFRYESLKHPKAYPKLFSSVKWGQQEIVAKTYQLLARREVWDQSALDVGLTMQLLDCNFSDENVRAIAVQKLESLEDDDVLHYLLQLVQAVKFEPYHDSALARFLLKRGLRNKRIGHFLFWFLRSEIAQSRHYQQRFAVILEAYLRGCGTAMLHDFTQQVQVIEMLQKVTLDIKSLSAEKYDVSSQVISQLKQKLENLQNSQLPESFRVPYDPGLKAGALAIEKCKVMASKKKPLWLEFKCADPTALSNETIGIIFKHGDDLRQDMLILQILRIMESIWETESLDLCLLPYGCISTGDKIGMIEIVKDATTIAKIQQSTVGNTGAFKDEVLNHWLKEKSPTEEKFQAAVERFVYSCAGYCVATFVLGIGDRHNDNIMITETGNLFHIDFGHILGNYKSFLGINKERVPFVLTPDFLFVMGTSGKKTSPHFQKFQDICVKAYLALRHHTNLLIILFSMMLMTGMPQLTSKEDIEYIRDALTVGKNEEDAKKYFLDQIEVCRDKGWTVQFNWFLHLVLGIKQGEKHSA

With `Cc1ncc(-c2ccc3nc(-c4nc5ccccc5[nH]4)oc3c2)cc1NS(=O)(=O)c1ccc(F)cc1` [Example 28, N-(5-(2-(1H-Benzo[d]imidazol-2-yl)benzo[d]oxazol-6-yl)-2-methylpyridin-3-yl)-4-fluorobenzenesulfonamide], the IC50 in assay [1] and in assay [2] was less than 0.25 µM throughout.

For `O=S(=O)(Nc1cc(-c2ccc3nc(-c4nc5ccccc5[nH]4)oc3c2)cnc1Cl)c1ccc(F)cc1` [Example 29, N-(5-(2-(1H-Benzo[d]imidazol-2-yl)benzo[d]oxazol-6-yl)-2-chloropyridin-3-yl)-4-fluorobenzenesulfonamide], the IC50 in assay [1] and in assay [2] was less than 0.25 µM in each case.

On to `O=S(=O)(Nc1cc(-c2ccc3nc(-c4nc5ccccc5[nH]4)oc3c2)cnc1F)c1ccc(F)cc1` [Example 30, N-(5-(2-(1H-Benzo[d]imidazol-2-yl)benzo[d]oxazol-6-yl)-2-fluoropyridin-3-yl)-4-fluorobenzenesulfonamide], for which the IC50 in assay [1] and in assay [2] was less than 0.25 µM in each case.

Take `CN1CCN(S(=O)(=O)Nc2cncc(-c3ccc4nc(-c5nc6ccccc6[nH]5)oc4c3)c2)CC1` [Example 31, N-(5-(2-(1H-Benzo[d]imidazol-2-yl)benzo[d]oxazol-6-yl)pyridin-3-yl)-4-methylpiperazine-1-sulfonamide]: the IC50 in assay [1] and in assay [2] was less than 0.25 µM in each case.

In the case of `CN1CCN(S(=O)(=O)Nc2cc(-c3ccc4nc(-c5nc6ccccc6[nH]5)oc4c3)cnc2F)CC1` [Example 32, N-(5-(2-(1H-Benzo[d]imidazol-2-yl)benzo[d]oxazol-6-yl)-2-fluoropyridin-3-yl)-4-methylpiperazine-1-sulfonamide], the IC50 in assay [1] and in assay [2] was less than 0.25 µM each time.

Consider `CC(=O)Nc1cncc(-c2ccc3nc(-c4nc5ccccc5[nH]4)oc3c2)c1` [Example 33, N-(5-(2-(1H-Benzo[d]imidazol-2-yl)benzo[d]oxazol-6-yl)pyridin-3-yl)acetamide], for which the results for the IC50 in assay [1] and in assay [2] were less than 1 µM and no less than 5 µM, respectively.

For `CN(C)c1cncc(-c2ccc3nc(-c4nc5ccccc5[nH]4)oc3c2)c1` [Example 34, 5-(2-(1H-Benzo[d]imidazol-2-yl)benzo[d]oxazol-6-yl)-N,N-dimethylpyridin-3-amine], the IC50 was less than 0.25 µM in assay [1] and less than 5 µM in assay [2].

As for `N#Cc1cncc(-c2ccc3nc(-c4nc5ccccc5[nH]4)oc3c2)c1` [Example 35, 5-(2-(1H-Benzo[d]imidazol-2-yl)benzo[d]oxazol-6-yl)nicotinonitrile], the figures for the IC50 in assay [1] and in assay [2] were less than 0.25 µM and no less than 5 µM, respectively.

For the molecule `CS(=O)(=O)c1cncc(-c2ccc3nc(-c4nc5ccccc5[nH]4)oc3c2)c1` [Example 36, 2-(1H-Benzo[d]imidazol-2-yl)-6-(5-(methylsulfonyl)pyridin-3-yl)benzo[d]oxazole], the IC50 in assay [1] is less than 0.25 µM; in assay [2] it was less than 5 µM.

Turning to `CN(C)S(=O)(=O)c1cncc(-c2ccc3nc(-c4nc5ccccc5[nH]4)oc3c2)c1` [Example 37, 5-[2-(1H-benzimidazol-2-yl)-1,3-benzoxazol-6-yl]-N,N-dimethylpyridine-3-sulfonamide], the IC50 in assay [1] was less than 0.25 µM; in assay [2], less than 1 µM.

Regarding `O=S(=O)(c1cncc(-c2ccc3nc(-c4nc5ccccc5[nH]4)oc3c2)c1)N1CCOCC1` [Example 38, 2-(1H-Benzo[d]imidazol-2-yl)-6-(5-(morpholinosulfonyl)pyridin-3-yl)benzo[d]oxazole], the IC50 in assay [1] is less than 0.25 µM; in assay [2], no less than 5 µM.

Regarding `O=S(=O)(Nc1cncc(-c2ccc3nc(-c4ncc[nH]4)oc3c2)c1)c1ccc(F)cc1` [Example 39, N-(5-(2-(1H-Imidazol-2-yl)benzo[d]oxazol-6-yl)pyridin-3-yl)-4-fluorobenzenesulfonamide], the IC50 in assay [1] and in assay [2] was less than 0.25 µM throughout.

With `CCS(=O)(=O)Nc1cncc(-c2ccc3nc(-c4ncc[nH]4)oc3c2)c1` [Example 40, N-(5-(2-(1H-Imidazol-2-yl)benzo[d]oxazol-6-yl)pyridin-3-yl)ethanesulf-onamide], the IC50 in assay [1] is less than 0.25 µM; in assay [2] it was less than 1 µM.

Consider `CN(C)S(=O)(=O)Nc1cncc(-c2ccc3nc(-c4ncc[nH]4)oc3c2)c1` [Example 41, N′-{5-[2-(1H-Imidazol-2-yl)-1,3-benzoxazol-6-yl]pyridin-3-yl}-N,N-dimethyl-sulfamide], for which the IC50 in assay [1] was less than 0.25 µM; in assay [2], less than 1 µM.

As for `COc1cncc(-c2ccc3nc(-c4cnc(C5CC5)[nH]4)oc3c2)c1` [Example 42, 2-(2-Cyclopropyl-1H-imidazol-5-yl)-6-(5-methoxypyridin-3-yl)benzo[d]oxazole], the IC50 in assay [1] was less than 1 µM; in assay [2] it was less than 5 µM.

For the molecule `COc1cncc(-c2ccc3nc(-c4cnc(C5CCOC5)[nH]4)oc3c2)c1` (stereo not drawn) [Example 43, 6-(5-Methoxy-pyridin-3-yl)-2-(2-(tetrahydro-furan-3-yl)-1H-imidazol-5-yl)benzo[d] oxazole], the values for the IC50 in assay [1] and in assay [2] were less than 5 µM and no less than 5 µM, respectively.

As to `COc1cncc(-c2ccc3nc(-c4cnc(-c5ccccc5)[nH]4)oc3c2)c1` [Example 44, 6-(5-Methoxy-pyridin-3-yl)-2-(2-phenyl-1H-imidazol-5-yl)benzo[d] oxazole], the IC50 was less than 0.25 µM in assay [1] and no less than 5 µM in assay [2].

Regarding `CCc1ncc(-c2nc3ccc(-c4cncc(OC)c4)cc3o2)[nH]1` [Example 45, 2-(2-Ethyl-1H-imidazol-5-yl)-6-(5-methoxy-pyridin-3-yl)benzo[d] oxazole], the IC50 in assay [1] was greater than 5 µM; in assay [2], no less than 5 µM.

In the case of `COc1cncc(-c2ccc3nc(-c4cc(C)n[nH]4)oc3c2)c1` [Example 46, 6-(5-Methoxypyridin-3-yl)-2-(3-methyl-1H-pyrazol-5-yl)benzo[d]oxazole], the IC50 in assay [1] was greater than 5 µM; in assay [2], no less than 5 µM.

As for `COc1cncc(-c2ccc3nc(-c4cc(-c5ccccc5)n[nH]4)oc3c2)c1` [Example 47, 6-(5-Methoxypyridin-3-yl)-2-(3-phenyl-1H-pyrazol-5-yl)benzo[d]oxazole], the IC50 in assay [1] was less than 5 µM; in assay [2] it was no less than 5 µM.

Consider `c1ccc(Cn2cc(-c3ccc4nc(-c5nc6ccccc6[nH]5)oc4c3)cn2)cc1` [Example 48, 2-(1H-Benzimidazol-2-yl)-6-(1-benzyl-1H-pyrazol-4-yl)-1,3-benzoxazole], for which the values for the IC50 in assay [1] and in assay [2] were less than 0.25 µM and less than 5 µM, respectively.

`c1ccc2[nH]c(-c3nc4ccc(-c5ccc6[nH]ncc6c5)cc4o3)nc2c1` [Example 49, 2-(1H-Benzimidazol-2-yl)-6-(1H-indazol-5-yl)-1,3-benzoxazole]: the IC50 in assay [1] was less than 0.25 µM; in assay [2], less than 5 µM.

Consider `Cc1n[nH]c2ccc(-c3ccc4nc(-c5nc6ccccc6[nH]5)oc4c3)cc12` [Example 50, 2-(1H-Benzimidazol-2-yl)-6-(3-methyl-1H-indazol-5-yl)-1,3-benzoxazole], for which the IC50 in assay [1] and in assay [2] was less than 0.25 µM throughout.

As to `Fc1ccc(-c2ccc3nc(-c4nc5ccccc5[nH]4)oc3c2)cc1F` [Example 51, 2-(1H-Benzimidazol-2-yl)-6-(3,4-difluorophenyl)-1,3-benzoxazole trifluoroacetate], the IC50 is less than 0.25 µM in assay [1] and no less than 5 µM in assay [2].
